Data: ChEMBL document CHEMBL1201862, “PubChem BioAssay data set” (2004)
Calls of active or inactive are those of the source.

Assays:
[1] = target: T1, Heat shock factor protein 1 (Mus musculus, UniProt P38532); experiment: inhibition of MG132-induced HSE-luciferase signal, confirmation, cell-based, NIH3T3, luminescence, dose retest (AID 2382); format: functional;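 also: NIH3T3 fibroblasts with HSF1-driven luciferase reporter stressed by proteasome inhibitor MG132; luminescence from HSF1-driven luciferase expression after 8 hours of MG132 stress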
T1 sequence (P38532 whole entry): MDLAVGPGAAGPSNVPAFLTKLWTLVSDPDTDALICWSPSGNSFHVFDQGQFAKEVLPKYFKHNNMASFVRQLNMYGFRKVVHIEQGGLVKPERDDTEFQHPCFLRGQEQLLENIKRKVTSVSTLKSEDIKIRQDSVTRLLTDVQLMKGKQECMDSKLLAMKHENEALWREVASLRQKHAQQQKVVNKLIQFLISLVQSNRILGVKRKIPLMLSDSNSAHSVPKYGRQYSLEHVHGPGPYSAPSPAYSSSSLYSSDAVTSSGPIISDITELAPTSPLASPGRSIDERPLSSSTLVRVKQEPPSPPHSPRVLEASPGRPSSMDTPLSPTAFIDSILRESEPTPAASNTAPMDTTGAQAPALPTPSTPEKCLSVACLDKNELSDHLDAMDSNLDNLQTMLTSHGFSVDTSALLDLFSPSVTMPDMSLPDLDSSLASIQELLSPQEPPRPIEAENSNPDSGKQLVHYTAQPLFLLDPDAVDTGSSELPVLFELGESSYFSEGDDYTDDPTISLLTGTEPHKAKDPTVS

[2] = target: Cytochrome P450 3A4 (Homo sapiens, UniProt P08684);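 also: CYP3A4 tested as one member of a cytochrome P450 panel screen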
[3] = target: Cytochrome P450 2C9 (Homo sapiens, UniProt P11712)
[4] = inhibitors of SNCA 5'UTR-driven reporter translation, confirmation, H4 neuroglioma cells, luminescence (AID 1988); format: functional, cell-based
[5] = Luminescence Cell-Based Dose Response HTS to Identify Inhibitors of 5'UTR Stem-Loop Driven Prion Protein mRNA Translation in H4 Neuroglioblastoma Cells. [Related pubchem assays: 1827 (Project Summary), 1813 (Primary HTS)]; format: functional
[6] = inhibitors of firefly luciferase expression or activity, dose response, H4 neuroglioma cells, luminescence (AID 1990); format: functional, cell-based
[7] = target: T2, Cytochrome P450 1A2 (Homo sapiens, UniProt P05177);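 also: PubChem cytochrome P450 panel assay, CYP1A2 panel member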
T2 sequence (P05177 whole entry): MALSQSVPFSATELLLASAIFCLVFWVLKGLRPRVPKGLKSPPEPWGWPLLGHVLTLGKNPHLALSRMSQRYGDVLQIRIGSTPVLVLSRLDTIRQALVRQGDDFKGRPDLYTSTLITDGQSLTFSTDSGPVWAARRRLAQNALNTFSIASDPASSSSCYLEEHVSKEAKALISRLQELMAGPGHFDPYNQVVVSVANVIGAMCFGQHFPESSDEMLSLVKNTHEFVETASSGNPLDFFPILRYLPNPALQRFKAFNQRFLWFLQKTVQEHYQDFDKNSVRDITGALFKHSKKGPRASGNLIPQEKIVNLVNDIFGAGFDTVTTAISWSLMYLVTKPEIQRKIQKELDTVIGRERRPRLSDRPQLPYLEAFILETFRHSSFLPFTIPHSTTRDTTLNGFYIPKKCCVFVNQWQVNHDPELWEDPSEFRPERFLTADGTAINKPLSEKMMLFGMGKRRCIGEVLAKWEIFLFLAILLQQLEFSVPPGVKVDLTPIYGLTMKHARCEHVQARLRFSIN

[8] = Luminescence Cell-Based Dose Confirmation HTS to Identify Activators of 5'UTR Stem-Loop Driven Alpha-Synuclein mRNA Translation in H4 Neuroglioblastoma Cells. [Related pubchem assays: 1829 (Project Summary), 1814 (Primary HTS)]; format: functional
[9] = Luminescence Cell-Based Dose Response HTS to Identify Activators of Luciferase Translation or Activity in H4 […] Cells. [Related pubchem assays: 1829 (Project Summary), 1814 (Primary HTS)]; format: functional
[10] = system: Streptococcus sp. 'group A'; experiment: growth inhibition of control SK(-) GAS strain, dose response, counter-screen for streptokinase expression inhibitor project, luminescence, kanamycin, BacTiterGlo, confirmation (AID 1900); format: functional, organism-based
[11] = target: T3, Streptokinase A (Streptococcus pyogenes serotype M1, UniProt P10520); experiment: S. pyogenes streptokinase expression inhibitors, potency, dose response, plasminogen activation absorbance, OD405 (AID 1914); format: functional, Streptococcus pyogenes M1 GAS;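 also: secreted streptokinase activity via plasminogen activation per viability signal from cell pellet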
T3 sequence (P10520 whole entry): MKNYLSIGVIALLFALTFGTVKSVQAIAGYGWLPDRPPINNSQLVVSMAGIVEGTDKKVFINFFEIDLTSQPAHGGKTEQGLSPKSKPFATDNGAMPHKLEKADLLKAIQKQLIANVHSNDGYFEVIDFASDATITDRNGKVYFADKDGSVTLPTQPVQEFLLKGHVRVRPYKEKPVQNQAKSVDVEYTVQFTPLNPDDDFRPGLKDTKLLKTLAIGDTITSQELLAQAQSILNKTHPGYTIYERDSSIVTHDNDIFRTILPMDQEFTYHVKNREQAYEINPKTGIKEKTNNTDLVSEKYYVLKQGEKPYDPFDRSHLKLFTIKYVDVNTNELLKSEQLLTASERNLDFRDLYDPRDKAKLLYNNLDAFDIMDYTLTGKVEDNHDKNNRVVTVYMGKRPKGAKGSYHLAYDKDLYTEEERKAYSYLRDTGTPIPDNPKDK

[12] = system: Streptococcus; experiment: Group A Streptococcus viability loss, dose response, counter-screen for streptokinase expression inhibitor project, luminescence, BacTiterGlo (AID 1915); format: functional, organism-based;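 also: potency for reduction of bacterial viability or growth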
[13] = target: Cytochrome P450 2C19 (Homo sapiens, UniProt P33261); experiment: Cytochrome panel assay with activity outcomes. Panel member name: p450-cyp2c19 Compounds with AC50 equal or less than 10 uM are considered active; format: functional; details: read-out: AC50
[14] = Luminescence Cell-Based Dose Retest to Confirm Inhibitors of Cancer Stem Cells. [Related pubchem assays (depositor defined):AID2717, AID2721]; format: functional; details: Homo sapiens
[15] = system: H4; experiment: Luminescence Cell-Based Dose Response HTS to Identify Activators of 5'UTR Stem-Loop Driven Prion Protein mRNA Translation in H4 Neuroglioblastoma Cells. [Related pubchem assays: 1829 (Project Summary), 1814 (Primary HTS)]; format: functional; details: Homo sapiens
[16] = target: Paired box protein Pax-8 (Homo sapiens, UniProt Q06710); experiment: inhibitors of PAX8-driven TPO luciferase reporter, dose response, RMG-I cells, cherry-pick (AID 687027); format: functional, cell-based;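 also: luciferase reporter driven by Pax8 target thyroperoxidase promoter measured by SteadyGlo luminescence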
Chain of Paired box protein Pax-8 (Q06710 whole entry): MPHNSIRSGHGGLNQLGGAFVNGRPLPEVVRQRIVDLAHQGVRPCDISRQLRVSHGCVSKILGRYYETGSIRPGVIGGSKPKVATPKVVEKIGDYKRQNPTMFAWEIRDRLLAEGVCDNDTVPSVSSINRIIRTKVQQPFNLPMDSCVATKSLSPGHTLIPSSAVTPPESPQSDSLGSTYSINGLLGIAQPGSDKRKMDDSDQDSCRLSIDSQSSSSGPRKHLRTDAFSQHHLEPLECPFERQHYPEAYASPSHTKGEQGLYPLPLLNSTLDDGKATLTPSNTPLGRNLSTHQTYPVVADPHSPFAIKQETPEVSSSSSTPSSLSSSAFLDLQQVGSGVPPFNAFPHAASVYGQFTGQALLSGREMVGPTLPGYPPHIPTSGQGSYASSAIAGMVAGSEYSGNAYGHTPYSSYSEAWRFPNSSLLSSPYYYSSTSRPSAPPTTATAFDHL

Chain of Cytochrome P450 2C19 (P33261 whole entry): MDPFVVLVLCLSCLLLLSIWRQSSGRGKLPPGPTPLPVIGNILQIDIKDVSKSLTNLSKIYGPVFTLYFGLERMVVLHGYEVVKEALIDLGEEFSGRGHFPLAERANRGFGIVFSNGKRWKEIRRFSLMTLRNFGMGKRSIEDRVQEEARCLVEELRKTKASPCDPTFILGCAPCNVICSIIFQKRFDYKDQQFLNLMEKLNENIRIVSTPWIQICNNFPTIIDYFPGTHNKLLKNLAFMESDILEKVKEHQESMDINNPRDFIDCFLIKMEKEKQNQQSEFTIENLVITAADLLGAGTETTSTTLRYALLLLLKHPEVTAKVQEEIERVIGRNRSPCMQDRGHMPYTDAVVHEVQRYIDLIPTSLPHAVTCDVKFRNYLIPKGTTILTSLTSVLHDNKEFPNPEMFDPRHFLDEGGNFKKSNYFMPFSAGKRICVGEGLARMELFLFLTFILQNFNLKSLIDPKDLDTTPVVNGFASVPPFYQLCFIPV
Chain of Cytochrome P450 2C9 (P11712 whole entry): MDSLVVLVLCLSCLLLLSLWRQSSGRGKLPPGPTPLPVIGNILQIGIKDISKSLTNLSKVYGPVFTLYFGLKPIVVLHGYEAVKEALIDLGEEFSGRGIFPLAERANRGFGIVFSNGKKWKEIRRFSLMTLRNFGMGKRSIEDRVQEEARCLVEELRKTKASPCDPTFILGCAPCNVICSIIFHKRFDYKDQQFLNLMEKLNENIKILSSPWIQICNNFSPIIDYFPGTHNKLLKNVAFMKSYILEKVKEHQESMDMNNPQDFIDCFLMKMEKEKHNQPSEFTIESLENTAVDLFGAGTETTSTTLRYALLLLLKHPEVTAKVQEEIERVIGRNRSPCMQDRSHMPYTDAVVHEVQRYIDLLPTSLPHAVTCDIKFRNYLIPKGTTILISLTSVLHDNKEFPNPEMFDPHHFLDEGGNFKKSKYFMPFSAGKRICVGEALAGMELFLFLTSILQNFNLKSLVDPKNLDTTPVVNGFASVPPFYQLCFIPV
Chain of Cytochrome P450 3A4 (P08684 whole entry): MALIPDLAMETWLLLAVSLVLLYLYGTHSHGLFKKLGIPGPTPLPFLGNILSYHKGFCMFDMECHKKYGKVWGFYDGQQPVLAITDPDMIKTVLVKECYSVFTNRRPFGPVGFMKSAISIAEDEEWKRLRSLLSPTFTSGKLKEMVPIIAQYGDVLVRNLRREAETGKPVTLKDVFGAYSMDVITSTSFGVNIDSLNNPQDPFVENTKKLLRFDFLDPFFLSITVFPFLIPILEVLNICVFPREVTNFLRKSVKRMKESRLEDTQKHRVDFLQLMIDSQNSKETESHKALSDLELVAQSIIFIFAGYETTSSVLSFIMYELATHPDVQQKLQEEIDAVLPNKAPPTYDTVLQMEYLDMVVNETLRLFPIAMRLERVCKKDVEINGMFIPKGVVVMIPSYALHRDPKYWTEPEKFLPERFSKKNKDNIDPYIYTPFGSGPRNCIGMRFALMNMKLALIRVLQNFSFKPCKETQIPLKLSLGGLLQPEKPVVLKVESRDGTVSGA

Cc1cc(NC(=O)C2C3C(=O)N(Cc4ccc(Cl)cc4)C(C(=O)NC(C)(C)C)C34C=CC2(C)O4)no1 (configuration not stated)
EC50 [1]: > 195 µM (not active)
AC50 [2]: 25.1 µM (inconclusive)

COC(=O)c1nn(-c2cccc(C(F)(F)F)c2)c(=O)cc1Sc1ccccn1
EC50 [1]: > 195 µM (not active)
AC50 [2]: 20 µM (inconclusive)
AC50 [3]: 3.98 µM (inconclusive)

COc1ccc(NS(=O)(=O)c2cccc(N3CC(=O)C(c4ccccc4)=C3N)c2)cc1
EC50 [4]: > 120 µM (not active)
EC50 [5]: > 120 µM (not active)
EC50 [6]: > 120 µM (not active)

COc1ccc(-n2c(=O)c(-c3ccccc3)nc3cnc(N4CCOCC4)nc32)cc1
AC50 [7]: 15.8 µM (inconclusive)

O=C(Nc1nnc(-c2ccccc2F)s1)C1CCCO1 (configuration not stated)
EC50 [8]: 0.223 µM (active)
EC50 [9]: 0.89 µM (active)

CNS(=O)(=O)c1ccc(NC(=O)c2cnn3c(C(F)F)cc(-c4ccccc4)nc23)cc1
EC50 [10]: 85.3 µM (active)
EC50 [11]: > 150 µM (not active)
EC50 [4]: 12.1 µM (active)
EC50 [12]: > 150 µM (not active)
EC50 [5]: 31.8 µM (active)
EC50 [6]: > 120 µM (not active)

COC(=O)[C@@]1(Cc2ccc(OC)cc2)[C@H]2c3cc(C(=O)N(C)C)n(CCN4CNCC4=O)c3C[C@H]2CN1C(=O)c1ccccc1
AC50 [13]: 15.8 µM (inconclusive)
AC50 [7]: 20 µM (inconclusive)

COc1cccc(Cn2c(=O)c(-c3cccc(C#N)c3)nc3cnc(Nc4ccccc4)nc32)c1
AC50 [2]: 0.794 µM (inconclusive)

O=c1c2c(n3cnnc3n1C1CCCCC1)-c1ccccc1CC21CCCCC1
EC50 [4]: > 120 µM (not active)
EC50 [5]: > 120 µM (not active)
EC50 [6]: > 120 µM (not active)

c1cn2c(NC3CCCCC3)c(-c3ccc(SC4CCCCC4)cc3)nc2cn1
EC50 [10]: 1.01 µM (active)
EC50 [11]: > 150 µM (not active)
AC50 [14]: 3.13 µM (active)
EC50 [12]: 4.27 µM (active)

CCOC(=O)c1ncn2c1[C@H]1CCCN1C(=O)c1cc(OC)ccc1-2
AC50 [7]: 39.8 µM (inconclusive)

CCOCC(=O)Nc1c(C(=O)Nc2ccccc2OC)oc2ccccc12
AC50 [2]: 6.31 µM (inconclusive)

CC1(C)CC(=O)C(CCCN2C(=O)c3ccccc3C2=O)C(=O)C1
AC50 [13]: 39.8 µM (inconclusive)
AC50 [7]: 28.2 µM (inconclusive)

Cc1c(NC(=O)/C(C#N)=C/c2ccc(-c3ccccc3Cl)o2)c(=O)n(-c2ccccc2)n1C
EC50 [4]: > 120 µM (not active)
EC50 [5]: > 120 µM (not active)
EC50 [6]: 13.4 µM (active)

Cc1cc(C)c2c(N)c(C(=O)Nc3cccc(C)c3C)sc2n1
EC50 [15]: > 120 µM (not active)
EC50 [8]: > 120 µM (not active)
EC50 [9]: 3.92 µM (active)

COCCn1c(=O)c(-c2ccc(F)c(F)c2)nc2cncnc21
AC50 [2]: 12.6 µM (inconclusive)

CCOc1ccc(-c2nc(S(=O)(=O)c3ccccc3)c(NCc3cccnc3)o2)cc1
EC50 [4]: > 120 µM (not active)
EC50 [5]: > 120 µM (not active)
EC50 [6]: > 120 µM (not active)

Cc1ccc(C)c(NC(=O)c2cc3ccccn3n2)c1
EC50 [15]: 41.1 µM (active)
EC50 [8]: 0.765 µM (active)
EC50 [9]: 0.163 µM (active)

CCc1ccc(N2C(=O)/C(=C/c3cccs3)N(CC(=O)OC)C2=S)cc1
AC50 [13]: 3.98 µM (inconclusive)
AC50 [2]: 12.6 µM (inconclusive)
AC50 [3]: 12.6 µM (inconclusive)
AC50 [7]: 15.8 µM (inconclusive)

Nc1ccc(S(=O)(=O)c2ccc(NC(=O)c3cccnc3)cc2)cc1
AC50 [2]: 3.16 µM (inconclusive)
AC50 [3]: 6.31 µM (inconclusive)

O=C(c1ccc(C[S+]([O-])Cc2ccccc2Cl)o1)N1CCN(C2CCCCC2)CC1 (configuration not stated)
EC50 [15]: > 120 µM (not active)
EC50 [8]: > 120 µM (not active)
EC50 [9]: > 120 µM (not active)

C/C(CCN1CCCc2nc(C)c(C)cc21)=N\O[C@@H](C)c1cc(-c2c(C)cc(C)cc2C)no1
AC50 [2]: 5.01 µM (inconclusive)

COc1cccc(Nc2ncc3nc(-c4cc(F)cc(F)c4)c(=O)n(C4CC4)c3n2)c1
AC50 [7]: 6.31 µM (inconclusive)

NC[C@](O)(CS(=O)(=O)O)c1ccc(Cl)cc1
AC50 [2]: 1 µM (inconclusive)
AC50 [7]: 31.6 µM (inconclusive)

c1ccc2c3c([nH]c2c1)[C@@H]1[C@H]2CC[C@H]([C@H]4CCCN[C@H]42)N1CC3
AC50 [7]: 15.8 µM (inconclusive)

O=c1c(-c2ccc(Cl)cc2)nc2cnc(Nc3ccccc3)nc2n1C[C@H]1CCCO1
AC50 [7]: 12.6 µM (inconclusive)

C=CCn1c2ccccc2c2nnc(S)nc21
EC50 [4]: > 120 µM (not active)
EC50 [5]: > 120 µM (not active)
EC50 [6]: 17.8 µM (active)

Cc1ccc(NC(=O)c2nc[nH]c2C(=O)N[C@@H](C)c2ccccc2)cc1
EC50 [10]: 1.05 µM (active)
EC50 [11]: > 150 µM (not active)
EC50 [4]: > 120 µM (not active)
EC50 [12]: 16.9 µM (active)
EC50 [5]: > 120 µM (not active)
EC50 [6]: 17.3 µM (active)

O=C(COc1cccc2cccnc12)Nc1ccccc1
EC50 [15]: 15 µM (active)
EC50 [9]: 15.4 µM (active)

Cc1ccccc1-c1cc(C(=O)Nc2nc3c(s2)CCCC3)c2ccccc2n1
AC50 [7]: 3.55 µM (inconclusive)

NS(=O)(=O)c1ccc(NC2(C(=O)O)CCCC2)cc1
AC50 [7]: 0.794 µM (inconclusive)

C[C@H](O)C#Cc1cnc2c(c1)C(=O)N([C@H](C)CO)C[C@H](C)[C@H](CN(C)Cc1ccc(-c3ccccc3)cc1)O2
AC50 [16]: 5.05 µM (active)

Cc1ccc(S(=O)(=O)N(C)C[C@H]2OCCCC[C@@H](C)Oc3ccc(NS(=O)(=O)c4ccc(F)cc4)cc3C(=O)N([C@@H](C)CO)C[C@H]2C)cc1
AC50 [16]: 8.12 µM (active)

CCCN(CCC)[C@@H]1CCc2c(OC)cccc2[C@@H]1C
AC50 [7]: 31.6 µM (inconclusive)

CCC(CC)C(=O)Nc1cccc(/C(C)=N\NC(=O)c2ccc(C)s2)c1
AC50 [3]: 0.355 µM (inconclusive)
AC50 [7]: 3.16 µM (inconclusive)

CCN(CC)S(=O)(=O)c1cccc(-c2nnc(S)n2/N=C/c2ccc(OC)cc2)c1
EC50 [4]: 34.8 µM (active)
EC50 [5]: > 120 µM (not active)
EC50 [6]: 23.8 µM (active)

Oc1ccc(CNCc2ccccc2)c2cccnc12
AC50 [7]: 5.01 µM (inconclusive)

CN1CCN(CCc2ccc(Cl)c(Cl)c2)CC1
AC50 [7]: 25.1 µM (inconclusive)
